Data as given in ChEMBL document CHEMBL1201862, “PubChem BioAssay data set” (2004).
Calls of active or inactive are those of the source.

Key:
[1] = molecular target: Guanyl-specific ribonuclease T1 (Aspergillus oryzae (strain ATCC 42149 / RIB 40), UniProt P00651); test: RNase T1 inhibitors, dose response, counter-screen for TPT1 inhibitor project, biochemical, fluorescence polarization, 1536-well (AID 2167)
[2] = molecular target: Beta-adrenergic receptor kinase 1 (Homo sapiens, UniProt P25098); test: aptamer displacement from bead-bound GRK2 – biochemical, cherry pick 1, bead flow cytometry, dose response (AID 504500)
Chain of Beta-adrenergic receptor kinase 1 (P25098 whole entry): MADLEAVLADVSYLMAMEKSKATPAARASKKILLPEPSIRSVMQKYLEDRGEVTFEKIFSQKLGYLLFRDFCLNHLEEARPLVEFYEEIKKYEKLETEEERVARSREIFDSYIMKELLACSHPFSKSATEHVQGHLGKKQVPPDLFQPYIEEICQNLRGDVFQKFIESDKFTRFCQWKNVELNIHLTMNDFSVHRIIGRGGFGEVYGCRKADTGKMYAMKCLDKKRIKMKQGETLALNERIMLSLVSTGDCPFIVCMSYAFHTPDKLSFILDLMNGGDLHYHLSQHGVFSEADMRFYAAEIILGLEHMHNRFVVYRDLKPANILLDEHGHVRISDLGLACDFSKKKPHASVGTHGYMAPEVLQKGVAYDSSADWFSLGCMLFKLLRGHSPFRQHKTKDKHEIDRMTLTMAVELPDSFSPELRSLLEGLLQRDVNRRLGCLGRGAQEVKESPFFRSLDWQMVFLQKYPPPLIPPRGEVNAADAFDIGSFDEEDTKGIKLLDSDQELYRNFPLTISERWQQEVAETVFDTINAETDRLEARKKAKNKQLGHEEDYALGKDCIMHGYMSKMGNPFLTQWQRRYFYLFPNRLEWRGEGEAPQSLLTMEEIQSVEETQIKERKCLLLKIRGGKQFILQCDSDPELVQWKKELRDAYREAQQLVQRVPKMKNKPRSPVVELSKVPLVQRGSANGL

[3] = molecular target: Likely tRNA 2'-phosphotransferase (Candida albicans (strain SC5314 / ATCC MYA-2876) (Yeast), UniProt Q5A7N4); test: TPT1 tRNA phosphotransferase inhibitors, dose response, biochemical, fluorescence polarization (AID 2160)
Chain of Likely tRNA 2'-phosphotransferase (Q5A7N4 whole entry): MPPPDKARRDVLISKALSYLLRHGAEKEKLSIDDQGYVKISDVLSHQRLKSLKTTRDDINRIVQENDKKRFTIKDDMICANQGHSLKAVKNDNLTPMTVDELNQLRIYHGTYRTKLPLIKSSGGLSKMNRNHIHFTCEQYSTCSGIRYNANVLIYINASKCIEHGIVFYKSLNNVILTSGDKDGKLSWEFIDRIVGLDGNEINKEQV

[4] = HEp-2 cell cytotoxicity, dose response, cytotoxicity control for RSV inhibitor project, HTS (AID 2410); assay type: functional; conditions: human respiratory syncytial virus
Vero = test: cells; assay type: functional, cell-based; conditions: Chlorocebus sabaeus
BJ [5] = test: cells; assay type: functional, cell-based; conditions: Homo sapiens
BJ [6] = test: cytotoxicity toward BJ-TERT-LT-ST fibroblasts, dose response, cell-based, RAS-independent, luminescence (AID 1935); assay type: functional; conditions: Homo sapiens;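 note: BJ fibroblasts immortalized with TERT plus LT and ST oncogenes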
[7] = luciferase reporter signal reduction – luminescence, H4-C neuroglioblastoma cells, dose response (AID 2458); assay type: functional, cell-based;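 note: H4 neuroglioblastoma cells stably carrying a luciferase reporter gene fusion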
[8] = inhibitors of firefly luciferase expression or activity, dose response, H4 neuroglioma cells, luminescence (AID 1990); assay type: functional, cell-based
Cysteine protease ATG4B = molecular target: T1, Cysteine protease ATG4B (Homo sapiens, UniProt Q9Y4P1); test: ATG4B protease inhibitors, dose response, biochemical, fluorescence, set 2 (AID 588584); assay type: functional
T1 sequence (Q9Y4P1 whole entry): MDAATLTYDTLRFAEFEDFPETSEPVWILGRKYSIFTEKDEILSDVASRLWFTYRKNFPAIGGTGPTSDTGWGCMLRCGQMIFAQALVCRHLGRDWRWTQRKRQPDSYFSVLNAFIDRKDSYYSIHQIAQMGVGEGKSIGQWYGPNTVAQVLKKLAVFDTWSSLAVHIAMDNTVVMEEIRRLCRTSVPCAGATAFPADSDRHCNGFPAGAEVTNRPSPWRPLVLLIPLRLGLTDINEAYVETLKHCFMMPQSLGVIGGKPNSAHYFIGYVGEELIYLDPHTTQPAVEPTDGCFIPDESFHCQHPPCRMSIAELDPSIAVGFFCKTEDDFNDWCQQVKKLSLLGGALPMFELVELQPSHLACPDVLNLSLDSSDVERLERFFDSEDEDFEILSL

[9] = Luminescence Cell-Based Dose Response HTS to Identify Inhibitors of 5'UTR Stem-Loop Driven Prion Protein mRNA Translation in H4 Neuroglioblastoma Cells. [Related pubchem assays: 1827 (Project Summary), 1813 (Primary HTS)]; assay type: functional
BJ [10] = test: cytotoxicity toward Ras-transformed BJeLR fibroblasts, dose response, cell-based, alamar blue fluorescence, cherrypicked samples (AID 2631); assay type: functional; conditions: Homo sapiens;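 note: confirmatory dose-response assay in RAS-dependent BJ fibroblasts engineered with TERT, LT and ST, with cytotoxicity read by fluorescence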
[11] = cytotoxicity toward DRD oncogenic fibroblasts, dose response, cell-based, non-viral oncogenic, luminescence (AID 1934); assay type: functional; conditions: Homo sapiens
[12] = inhibitors of SNCA 5'UTR-driven reporter translation, confirmation, H4 neuroglioma cells, luminescence (AID 1988); assay type: functional, cell-based
cells = assay type: functional, cell-based
[13] = inhibitors of SNCA 5'UTR-driven translation, confirmation, luminescence, H4 neuroglioblastoma cells, dose confirmation (AID 2454); assay type: functional, cell-based;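 note: H4 neuroglioblastoma cells carrying an alpha-synuclein 5'UTR luciferase reporter; potency for inhibition of the luciferase signal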
Phospholipase A2 = Phospholipase A2 (Homo sapiens, UniProt P04054); test: PLA2 enzyme inhibitors, dose response, counter-screen for ATG4B inhibitor project, biochemical, set 2 (AID 588586); assay type: functional
Chain of Phospholipase A2 (P04054 whole entry): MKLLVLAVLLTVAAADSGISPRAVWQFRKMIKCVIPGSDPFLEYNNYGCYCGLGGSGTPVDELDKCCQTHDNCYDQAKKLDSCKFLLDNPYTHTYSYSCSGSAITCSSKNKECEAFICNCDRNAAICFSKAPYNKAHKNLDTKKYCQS

[14] = molecular target: T2, High affinity choline transporter 1 (Homo sapiens, UniProt Q9GZV3); test: CHT inhibitors, dose response, cell-based, 5-point CRC, membrane potential dye (AID 504840); assay type: functional
T2 sequence (Q9GZV3 whole entry): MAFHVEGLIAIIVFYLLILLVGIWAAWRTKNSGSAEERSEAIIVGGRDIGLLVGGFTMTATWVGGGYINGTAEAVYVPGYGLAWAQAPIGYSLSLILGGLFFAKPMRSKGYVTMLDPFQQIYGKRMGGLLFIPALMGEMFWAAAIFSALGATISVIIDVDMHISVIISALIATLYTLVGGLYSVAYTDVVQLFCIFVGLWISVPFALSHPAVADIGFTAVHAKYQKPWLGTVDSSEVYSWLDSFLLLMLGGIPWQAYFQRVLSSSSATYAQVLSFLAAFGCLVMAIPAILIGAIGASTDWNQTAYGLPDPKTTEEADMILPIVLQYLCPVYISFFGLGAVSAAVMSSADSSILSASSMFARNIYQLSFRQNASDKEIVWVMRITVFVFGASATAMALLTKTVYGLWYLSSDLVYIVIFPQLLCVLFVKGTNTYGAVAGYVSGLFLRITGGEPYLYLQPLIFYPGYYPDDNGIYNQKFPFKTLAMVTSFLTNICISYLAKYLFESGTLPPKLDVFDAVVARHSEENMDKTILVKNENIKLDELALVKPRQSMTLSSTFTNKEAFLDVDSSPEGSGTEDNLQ

MDCK = test: antiviral activity against H1N1 influenza, dose response, cell-based, strain KY136 (AID 540257); assay type: functional; conditions: Canis lupus familiaris
Escherichia coli [15] = test: microbe, parasite or virus in culture
Escherichia coli [16] = test: microbe, parasite or virus in culture; remark: listed apart in the source

Chain of Guanyl-specific ribonuclease T1 (P00651 whole entry): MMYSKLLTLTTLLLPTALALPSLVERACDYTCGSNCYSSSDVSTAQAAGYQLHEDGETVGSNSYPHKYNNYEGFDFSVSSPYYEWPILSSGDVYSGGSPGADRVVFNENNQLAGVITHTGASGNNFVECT

NC(=O)c1cc[n+](CC2=C(C(=O)O)N3C(=O)[C@@H](NC(=O)[C@@H](c4ccccc4)S(=O)(=O)[O-])[C@H]3SC2)cc1 [CEFSULODIN SODIUM]
IC50 [1]: > 55.7 µM (not active) | EC50 [2]: 0.07 µM (active) | IC50 [3]: 1.69 µM (active)

Cc1cccc(NC(=O)CSc2nc3ccccc3nc2N2CCCC2)c1
CC50 [4]: 13.7 µM (active) | IC50 (Vero): > 25 µM (active)

CCC1=Nc2cc(C(=O)NCc3ccco3)ccc2Sc2ccc(C)cc21
EC50 (BJ [5]): 13.1 µM (inconclusive) | EC50 (BJ [6]): 0.597 µM (active) | EC50 [7]: 0.756 µM (active) | EC50 [8]: 0.25 µM (active) | IC50 (Cysteine protease ATG4B): > 80 µM (inactive) | EC50 [9]: 0.243 µM (active) | EC50 (BJ [10]): < 0.104 µM (active) | EC50 [11]: 0.496 µM (active) | EC50 [12]: < 0.1 µM (active) | EC50 (cells): 0.919 µM (active) | EC50 [13]: > 12 µM (inconclusive) | IC50 (Phospholipase A2): 51.7 µM (inactive)

O=S(=O)(Cc1cc(Cl)nc(-c2cccnc2)n1)c1ccccc1
IC50 [14]: 10.5 µM (active) | IC50 (MDCK): > 100 µM (active)

CCN(CC)CC(=O)c1c[nH]c2ccc(OC)cc12
AC50 (Escherichia coli [15]): 26.5 µM (active) | AC50 (Escherichia coli [16]): 25.6 µM (active)
